Results reported in the supplement of paper PMC10307832.

Legend:
Assay in all cases: relative viability (nuclei count vs DMSO), 5 days (fraction); higher = more cells survive
COR-L 105 = tested on: COR-L 105
Outline: (§1)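 Lung cancer cell lines were seeded in 1536-well plates and dosed by pin tool the next day, with either a single drug or a fixed anchor-drug dose combined with five library-drug doses (not always all listed) spaced in √10 steps. Five days later, one step fixed the cells and stained their nuclei (final 0.05% Triton X-100, 1% formaldehyde, 1 ug/ml Hoechst), and nuclei were counted on 4× images. Relative viability is the nuclei count in treated wells divided by the count in vehicle wells, and each value is the median of duplicate plates.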

COR-L23 = tested on: COR-L23
Outline: as §1

HARA = tested on: HARA
Outline: as §1

HCC-15 = tested on: HCC-15
Outline: as §1

HOP-62 = tested on: HOP-62
Outline: as §1

NCI-H1355 = tested on: NCI-H1355
Outline: as §1

NCI-H1395 = tested on: NCI-H1395
Outline: as §1

NCI-H1734 = tested on: NCI-H1734
Outline: as §1

NCI-H1755 = tested on: NCI-H1755
Outline: as §1

NCI-H1792 = tested on: NCI-H1792
Outline: as §1

NCI-H1793 = tested on: NCI-H1793
Outline: as §1

NCI-H1993 = tested on: NCI-H1993
Outline: as §1

NCI-H2009 = tested on: NCI-H2009
Outline: as §1

NCI-H2228 = tested on: NCI-H2228
Outline: as §1

NCI-H2347 = tested on: NCI-H2347
Outline: as §1

NCI-H358 = tested on: NCI-H358
Outline: as §1

NCI-H647 = tested on: NCI-H647
Outline: as §1

NCI-H838 = tested on: NCI-H838
Outline: as §1

SK-MES-1 = tested on: SK-MES-1
Outline: as §1

UMC-11 = tested on: UMC-11
Outline: as §1

Nc1ccn([C@@H]2O[C@H](CO)[C@@H](O)[C@@H]2O)c(=O)n1 [Cytarabine] + C[C@]1(O)C[C@@H](c2nc(-c3ccc4ccc(-c5ccccc5)nc4c3)c3c(N)nccn32)C1 [Linsitinib] (partner 1 µM)
relative viability (COR-L 105; first compound 0.005 µM): 0.815 | relative viability (COR-L 105; first compound 0.01581 µM): 1.1 | relative viability (COR-L 105; first compound 0.05 µM): 0.628 | relative viability (COR-L 105; first compound 0.1581 µM): 0.443 | relative viability (COR-L 105; first compound 0.5 µM): 0.359 | relative viability (COR-L23; first compound 0.005 µM): 0.787 | relative viability (COR-L23; first compound 0.01581 µM): 0.806 | relative viability (COR-L23; first compound 0.05 µM): 0.552 | relative viability (COR-L23; first compound 0.1581 µM): 0.159 | relative viability (COR-L23; first compound 0.5 µM): 0.122 | relative viability (HARA; first compound 0.005 µM): 0.851 | relative viability (HARA; first compound 0.01581 µM): 0.608 | relative viability (HARA; first compound 0.05 µM): 0.396 | relative viability (HARA; first compound 0.1581 µM): 0.174 | relative viability (HARA; first compound 0.5 µM): 0.0936 | relative viability (HCC-15; first compound 0.005 µM): 0.902 | relative viability (HCC-15; first compound 0.01581 µM): 0.912 | relative viability (HCC-15; first compound 0.05 µM): 0.903 | relative viability (HCC-15; first compound 0.1581 µM): 0.72 | relative viability (HCC-15; first compound 0.5 µM): 0.585 | relative viability (HOP-62; first compound 0.005 µM): 0.781 | relative viability (HOP-62; first compound 0.01581 µM): 0.666 | relative viability (HOP-62; first compound 0.05 µM): 0.257 | relative viability (HOP-62; first compound 0.1581 µM): 0.124 | relative viability (HOP-62; first compound 0.5 µM): 0.0827 | relative viability (NCI-H1355; first compound 0.005 µM): 0.788 | relative viability (NCI-H1355; first compound 0.01581 µM): 0.8 | relative viability (NCI-H1355; first compound 0.05 µM): 0.627 | relative viability (NCI-H1355; first compound 0.1581 µM): 0.451 | relative viability (NCI-H1355; first compound 0.5 µM): 0.32 | relative viability (NCI-H1395; first compound 0.005 µM): 0.89 | relative viability (NCI-H1395; first compound 0.01581 µM): 0.709 | relative viability (NCI-H1395; first compound 0.05 µM): 0.784 | relative viability (NCI-H1395; first compound 0.1581 µM): 0.466 | relative viability (NCI-H1395; first compound 0.5 µM): 0.38 | relative viability (NCI-H1734; first compound 0.005 µM): 0.512 | relative viability (NCI-H1734; first compound 0.01581 µM): 0.328 | relative viability (NCI-H1734; first compound 0.05 µM): 0.257 | relative viability (NCI-H1734; first compound 0.1581 µM): 0.141 | relative viability (NCI-H1734; first compound 0.5 µM): 0.128 | relative viability (NCI-H1755; first compound 0.005 µM): 0.936 | relative viability (NCI-H1755; first compound 0.01581 µM): 0.873 | relative viability (NCI-H1755; first compound 0.05 µM): 0.858 | relative viability (NCI-H1755; first compound 0.1581 µM): 0.31 | relative viability (NCI-H1755; first compound 0.5 µM): 0.271 | relative viability (NCI-H1792; first compound 0.005 µM): 0.46 | relative viability (NCI-H1792; first compound 0.01581 µM): 0.492 | relative viability (NCI-H1792; first compound 0.05 µM): 0.34 | relative viability (NCI-H1792; first compound 0.1581 µM): 0.348 | relative viability (NCI-H1792; first compound 0.5 µM): 0.283 | relative viability (NCI-H1793; first compound 0.005 µM): 0.941 | relative viability (NCI-H1793; first compound 0.01581 µM): 0.899 | relative viability (NCI-H1793; first compound 0.05 µM): 0.89 | relative viability (NCI-H1793; first compound 0.1581 µM): 0.732 | relative viability (NCI-H1793; first compound 0.5 µM): 0.391 | relative viability (NCI-H1993; first compound 0.005 µM): 0.703 | relative viability (NCI-H1993; first compound 0.01581 µM): 0.795 | relative viability (NCI-H1993; first compound 0.05 µM): 0.672 | relative viability (NCI-H1993; first compound 0.1581 µM): 0.539 | relative viability (NCI-H1993; first compound 0.5 µM): 0.471 | relative viability (NCI-H2009; first compound 0.005 µM): 1.11 | relative viability (NCI-H2009; first compound 0.01581 µM): 1.12 | relative viability (NCI-H2009; first compound 0.05 µM): 1.19 | relative viability (NCI-H2009; first compound 0.1581 µM): 0.83 | relative viability (NCI-H2009; first compound 0.5 µM): 0.411 | relative viability (NCI-H2228; first compound 0.005 µM): 0.675 | relative viability (NCI-H2228; first compound 0.01581 µM): 0.546 | relative viability (NCI-H2228; first compound 0.05 µM): 0.492 | relative viability (NCI-H2228; first compound 0.1581 µM): 0.152 | relative viability (NCI-H2228; first compound 0.5 µM): 0.0885 | relative viability (NCI-H2347; first compound 0.005 µM): 1.02 | relative viability (NCI-H2347; first compound 0.01581 µM): 0.932 | relative viability (NCI-H2347; first compound 0.05 µM): 0.822 | relative viability (NCI-H2347; first compound 0.1581 µM): 0.32 | relative viability (NCI-H2347; first compound 0.5 µM): 0.649 | relative viability (NCI-H358; first compound 0.005 µM): 0.571 | relative viability (NCI-H358; first compound 0.01581 µM): 0.628 | relative viability (NCI-H358; first compound 0.05 µM): 0.494 | relative viability (NCI-H358; first compound 0.1581 µM): 0.248 | relative viability (NCI-H358; first compound 0.5 µM): 0.16 | relative viability (NCI-H647; first compound 0.005 µM): 0.729 | relative viability (NCI-H647; first compound 0.01581 µM): 0.55 | relative viability (NCI-H647; first compound 0.05 µM): 0.394 | relative viability (NCI-H647; first compound 0.1581 µM): 0.148 | relative viability (NCI-H647; first compound 0.5 µM): 0.061 | relative viability (NCI-H838; first compound 0.005 µM): 1.07 | relative viability (NCI-H838; first compound 0.01581 µM): 1.01 | relative viability (NCI-H838; first compound 0.05 µM): 0.875 | relative viability (NCI-H838; first compound 0.1581 µM): 0.418 | relative viability (NCI-H838; first compound 0.5 µM): 0.295 | relative viability (SK-MES-1; first compound 0.005 µM): 0.905 | relative viability (SK-MES-1; first compound 0.01581 µM): 0.82 | relative viability (SK-MES-1; first compound 0.05 µM): 0.368 | relative viability (SK-MES-1; first compound 0.1581 µM): 0.252 | relative viability (SK-MES-1; first compound 0.5 µM): 0.255 | relative viability (UMC-11; first compound 0.005 µM): 0.637 | relative viability (UMC-11; first compound 0.01581 µM): 0.637 | relative viability (UMC-11; first compound 0.05 µM): 0.424 | relative viability (UMC-11; first compound 0.1581 µM): 0.246 | relative viability (UMC-11; first compound 0.5 µM): 0.226
